These results are taken from paper PMC9853869, “The Myxobacterial Antibiotic Myxovalargin: Biosynthesis, Structural Revision, Total Synthesis, and Molecular Characterization of Ribosomal Inhibition” (Journal of the American Chemical Society, 2023).

*1 amine or outer side, *2 acyl side, *3 side chain or, on linkers, in order; H or OH if unused. Where a SMILES comes first, the peptide text is derived from it. [ ]: non-standard residue; d: D form. The star is where a group is joined. X1 = O=C(C[C@H](N[*:1])c1ccc(O)cc1)[*:2]; dVal(3-OH) = CC(C)(O)[C@@H](N)C(=O)O; ΔIle(E) = CC/C(C)=C(/N)C(=O)O; Isovaleryl = CC(C)CC(=O)*; Agmatine = N=C(N)NCCCCN*; NMeA = CN[C@@H](C)C(=O)O; ΔVal = CC(C)=C(N)C(=O)O

In assay [1] the test system is M. tuberculosis MXV-SRM69 (rrl: t2847c, rrl: t2849g, Rv2935/ppsE: G146*). The settings on record: MXV-SRM69 (rrl: t2847c, rrl: t2849g, Rv2935/ppsE: G146*, 4 h).
The next assay has as its system M. tuberculosis. The format is cell-based, Mycobacterium tuberculosis.

A word on the MIC: it is the lowest concentration found to suppress growth. Read a low MIC as greater potency. Take `CC/C(C)=C(/NC(=O)[C@H](NC(=O)[C@@H](NC(=O)[C@@H](CCCNC(=N)N)NC(=O)C(NC(=O)[C@H](NC(=O)C[C@H](NC(=O)[C@H](NC(=O)[C@H](NC(=O)[C@H](C)N(C)C(=O)[C@H](C)NC(=O)C(NC(=O)CC(C)C)=C(C)C)C(C)C)C(C)C)c1ccc(O)cc1)C(C)C)=C(C)C)C(C)C)C(C)C)C(=O)N[C@H](C)C(=O)N[C@@H](C(=O)NCCCCNC(=N)N)C(C)(C)O` [MyxA, Myxovalargin A] (Isovaleryl-[ΔVal]A[NMeA][dV][dV][X1][dV][ΔVal][dR]V[dV][ΔIle(E)][dA][dVal(3-OH)]-Agmatine): the MIC in assay [1] was greater than 210 µg/mL. In the assay on M. tuberculosis, the “MIC shift of resistant mutant strains” value was greater than 40 fold and the “frequency of spontaneous resistance mutants” value is ~6 × 10^–7.
